Patent publication US10639300B2, “Compositions and methods for treating nasal and paranasal mucosa diseases with nicotinic acetylcholine receptor agonists” (priority 2016, dated 2020)

Legend:
[1] = test system: patient with nose bleeding and atrophy of the nasal cavity mucous membranes; conditions: person, aqueous solution 2.0 mg/ml with salicylic acid 0.5 mg/ml, one to two drops, three to four times a day
Description: The patient was a person with a history of nose bleeding in small quantities and sensation of dryness in the nose and eyes. The patient also reported a long history of joint pain, but no other remarkable antecedents.
The treatment for patient two began with an aqueous solution of (S)-(1-methyl-2-pyrrolidinyl)-pyridine at a concentration of 2.0 mg/ml and salicylic acid at a concentration of 0.5 mg/ml at a dose of one to two drops (about 50 μL per drop) followed by forced inhalation. The dose was repeated three to four times a day.

[2] = test system: patient with chronic nasal congestion; conditions: aqueous solution 1.00 mg/ml with salicylic acid 0.5 mg/ml, two drops in each nostril, three or four times a day, follow-up one month later
Description: The patient also complained of frequent headaches in the forehead region.
The dose was repeated three or four times a day. […] It was felt by the clinician that the possible causative agent/s for the chronic nasal congestion may have been external environment factors such as cold, dust, air pollution, second-hand cigarette smoke and/or seasonal allergens such as pollens.

human cancer cells = conditions: experimental cultures of human cancer cells; concentration 5 mg/ml

CN1CCC[C@H]1c1cccnc1 [(S)-(1-methyl-2-pyrrolidinyl)-pyridine]
nasal bleeding (patient report) ([1]; follow-up one month later): ceased
sensation of dryness in the nose and eyes (patient report) ([1]; since the first week of treatment): diminished markedly
patient-reported improvement of symptoms (100% being what the patient considered normal) [2]: 90%
inhibition of proliferation (human cancer cells): 95%
